The record followed here is patent publication US5284871A, “Oxygen removal” (priority 1990, dated 1994).

A short description of experiment [1]: Dissolved oxygen consumption measured with a Clark oxygen electrode. The settings on record: for reducing agent in copper-mediated oxygen removal: 1 mM reducing agent, 100 micromolar copper gluconate; for effect of chelating agent on oxygen removal by Oxysorb: 1 mM chelating agent, 100 μM copper gluconate, 10 mM sodium ascorbate; for oxygen utilization by one component alone / effect of protein on the rate of oxygen removal by Oxysorb: pH 7.4; for effect of protein on the rate of oxygen removal by Oxysorb: 0.2% ascorbic acid, 40 ppm copper gluconate, with and without 2 mM glycine. The class given is physicochemical. The procedure: The oxygen tension was measured in 1 mM sodium ascorbate and 50 mM Tris, pH 7.4 at 25° C. using a Clark oxygen electrode.
Initial rates were measured in 50 micromolar copper sulfate, 1 mM sodium ascorbate, and 50 mM Tris, pH 7.4, at 25° C.
The initial rates were determined in 50 micromolar copper sulfate, 1 mM sodium ascorbate, and 50 mM Tris, pH 7.4 at 10° C., 15° C., 20° C., 25° C., 30° C., 35° C., and 40° C.
The rate of O2 consumption at 25° C. in 10 mM sodium ascorbate, 100 micromolar copper gluconate, 50 mM Tris, pH 7.4, and 1 mM chelating agent was monitored using a Clark electrode.
The rate of O2 consumption at 25° C. in 10 mM sodium ascorbate, 50 mM Tris, pH 7.4, and 100 micromolar transition metal was monitored using a Clark electrode.
The rate of O2 consumption at 25° C. in 100 micromolar copper gluconate, 50 mM Tris, pH 7.4, and 1 mM reducing agent was monitored using a Clark electrode.
Increasing amounts of ovalbumin in the absence and presence of glycine were added to the Oxysorb system and the rate of O2 consumption at 25° C. was monitored using a Clark electrode.
The chelating agents used for this experiment were glycine, L-histidine, phytic acid, and EDTA. Purified water and Tris were dispensed into the vial, and then 1 mM chelating agent and 100 μM copper gluconate were added. Upon stabilization of the oxygen electrode, the ascorbic acid was introduced and the reaction quickly took place.
Another experiment was designed to substitute a variety of transition metals and reducing agents in place of copper and ascorbate. The transition metals were ferric chloride, manganese sulfate, cobalt chloride, and chromium chloride. The final concentration of these metals was 100 micromolar in 10 mM ascorbic acid and 50 mM Tris buffer, pH 7.4. To start the reaction, the metal was added to these solution, and the removal of dissolved oxygen was monitored using a Clark electrode.
The reducing agents substituted for ascorbic acid were sodium sulfite, cysteine, and catechol. The order of addition was purified water, Tris, and 1 mM reducing agent. When the electrode stabilized, the copper gluconate was added.
Experiments were conducted to determine the effect of protein on the reaction of the Oxysorb system. Using a Clark electrode, the oxygen consumption was measured in solutions containing 50 mM Tris, pH 7.4, 0.2% ascorbic acid, 40 ppm copper gluconate, variable amounts of ovalbumin, with and without 2 mM glycine. The order of addition was water, Tris, glycine, copper gluconate, ovalbumin, and ascorbic acid.

Another experiment deals with E. coli. The experiment in a line: Growth of E. coli in nutrient broth with and without sodium ascorbate and metals. The arrangement: Growth of E. coli in nutrient broth: unit not given here. The class given is cell-based. The settings on record: 25° C.; for Growth of E. coli in nutrient broth: sodium ascorbate 0.2%, metal 88 μM. As to the method:
(§1) To determine the antimicrobial effects of Oxysorb, 10 ml of broth in 16×100 screw-capped tubes were inoculated with diluted, overnight cultures to achieve an initial population of 100 to 1000 cells/ml. Nutrient broth was used for E. coli and Pseudomonas fluorescens; fluid thioglycollate medium was used for Clostridium sporogenes. Following inoculation, sodium ascorbate was added at a level of 0.2%, then 88 μM metal salt (copper gluconate, cobalt chloride, or ferric chloride). Ascorbate, copper, cobalt, and iron solutions were prepared and filter sterilized just prior to use. Tubes were incubated at 25° C. with caps tightened, unless they were placed in anaerobic (Gas Pak) jars. Anaerobically incubated tubes had loose caps to allow for generation of an anaerobic environment in the tube headspace. Samples from two individual tubes were plated periodically.

The next experiment has as its system Pseudomonas fluorescens. The experiment in a line: Growth of Pseudomonas fluorescens in nutrient broth with and without sodium ascorbate and metals. The class given is cell-based. The settings on record: 25° C.; for Growth of Pseudomonas fluorescens in nutrient broth: sodium ascorbate 0.2%, metal 88 μM; for effect on the growth of Pseudomonas fluorescens: nutrient broth. As to the method:
as §1

Another experiment deals with yeast. The experiment in a line: Yeast growth at 25° C. with the oxygen scavenging system. The class given is cell-based. The conditions noted are these: 4-day period, 0.004% copper gluconate, 0.2% sodium ascorbate.
The nature of experiment [2]: Oxidation of ascorbic acid to dehydroascorbic acid, monitored spectrophotometrically. The class given is physicochemical. The settings on record: 50 micromolar ascorbic acid, 1 micromolar Cu^2+, pH 7.4, 25° C.; 1000 U/ml catalase, 25 U/ml SOD. The procedure:
The rate of oxidation at 25° C. in 50 mM Tris, pH 7.4, was monitored spectrophotometrically. […] The rate of oxidation at 25° C. in 50 mM Tris, pH 7.4, was monitored spectrophotometrically. […] Both reactions were carried out at 25° C. in 50 mM Tris, pH 7.4.

For experiment [3], the system named is polyphenol oxidase activity in potatoes. The experiment in a line: Browning of pureed potato. The conditions noted are these: refrigerated, seven days.
From the text: A control of water and potato was pureed in a blender and placed into a screw top jar, filled to overflowing to minimize headspace. The same was done to a sample of potato and 40 ppm copper gluconate and 0.1% ascorbic acid in water. The jars were refrigerated and inverted frequently to disperse any foam formed.
In experiment [4] the test system is microorganisms in potato water. The experiment in a line: Microbiological evaluation of potato water. The settings on record: room temperature. As to the method: Another experiment was conducted to determined if the system of the present invention could delay or prevent textural degradation of potatoes stored in water. Raw potatoes were peeled, cubed, and immersed in water and in solutions of 40 ppm copper gluconate and 0.1% or 0.5% ascorbic acid. The samples were kept in uncovered glass mason jars at room temperature.

The mark [5] stands for this setting: anaerobic incubation (Gas Pak jar).

In the case of `O=C1O[C@H]([C@@H](O)CO)C(O)=C1O` [ascorbic acid], the “reducing agent in copper-mediated oxygen removal” value (“reducing agent” for short) in experiment [1] (pH 7.4, 25° C.) is listed as “most efficient reducing agent”.

For `CC(O)CO` (centres unmarked) [propylene glycol], the “effect of freezing point depressant on the rate of oxygen removal” value in experiment [1] (50 micromolar copper sulfate, 1 mM sodium ascorbate, pH 7.4, 25° C.) is “not affected significantly”.

For `[Cl][Co][Cl]` [Co^2+, cobalt chloride], the “Growth of E. coli in nutrient broth” value was 430 in the experiment with E. coli (Time 0 days); 690 in the experiment with E. coli (Time 0.25 days); 8.1 × 10^5 in the experiment with E. coli (Time 1 day); 2.2 × 10^6 with E. coli (Time 2 days); 4.5 × 10^8 in the experiment on E. coli (Time 5 days). Besides, in the experiment on E. coli (sealed tubes, nutrient broth), the “effect on the growth of E. coli” value was “Growth was slowed but not stopped”. The “Growth of Pseudomonas fluorescens in nutrient broth” value is on record as 150 with Pseudomonas fluorescens (Time 0 days); 65 in the experiment with Pseudomonas fluorescens (Time 0.25 days); 1.9 × 10^6 in the experiment with Pseudomonas fluorescens (Time 1 day); 5.6 × 10^8 in the experiment with Pseudomonas fluorescens (Time 4 days); 5.5 × 10^7 with Pseudomonas fluorescens (Time 6 days). The “effect on the growth of Pseudomonas fluorescens” value in the experiment on Pseudomonas fluorescens was “slowed the growth”.

Turning to `O=P(O)(O)O[C@H]1[C@H](OP(=O)(O)O)[C@@H](OP(=O)(O)O)[C@H](OP(=O)(O)O)[C@@H](OP(=O)(O)O)[C@H]1OP(=O)(O)O` [Phytic acid, phytic acid], the “effect of chelating agent on oxygen removal by Oxysorb” value (shortened to “effect of chelating agent”) in experiment [1] (pH 7.4, 25° C.) is “slightly slower than the control”.

With `[Cl][Fe]([Cl])[Cl]` [Fe^3+, ferric chloride], the “Growth of E. coli in nutrient broth” value was 420 with E. coli (Time 0 days); 6400 with E. coli (Time 0.25 days); 2.1 × 10^8 in the experiment with E. coli (Time 1 day); 3.4 × 10^8 in the experiment with E. coli (Time 2 days); 1.5 × 10^8 in the experiment on E. coli (Time 5 days). Moreover, the “effect on the growth of E. coli” value with E. coli (sealed tubes, nutrient broth) is given as “no effect”. Further, the “Growth of Pseudomonas fluorescens in nutrient broth” value in the experiment with Pseudomonas fluorescens (Time 0 days) is 130; in the experiment on Pseudomonas fluorescens (Time 0.25 days) it was 160; in the experiment with Pseudomonas fluorescens (Time 1 day), 6.2 × 10^7; in the experiment with Pseudomonas fluorescens (Time 4 days), 8.1 × 10^7; with Pseudomonas fluorescens (Time 6 days) it was 5.1 × 10^7. The “effect on the growth of Pseudomonas fluorescens” value with Pseudomonas fluorescens is recorded as “did not differ from the control”.

For the molecule `N[C@@H](CS)C(=O)O` [cysteine], the “reducing agent” value in experiment [1] (pH 7.4, 25° C.) is on record as “more reactive than sulfite”.

`O=S(=O)([O-])[O-].[Cu+2]` [copper sulfate]: the “oxygen utilization by one component alone” value in experiment [1] is given as “No oxygen utilization”.

In the case of copper gluconate [Cu^2+], the “effect on yeast growth” value with yeast is recorded as “no toxicity”. Also, the “Growth of E. coli in nutrient broth” value is 510 in the experiment with E. coli (Time 0 days); 3100 in the experiment on E. coli (Time 0.25 days); 4.7 × 10^7 with E. coli (Time 1 day); 4.8 × 10^7 with E. coli (Time 2 days); 7.3 × 10^6 in the experiment with E. coli (Time 5 days). Further, the “effect on the growth of E. coli” value in the experiment on E. coli (setting [5]) was “further suppressed growth”; in the experiment on E. coli (sealed tubes, nutrient broth) it was “reduced both the growth rate and the maximum population”. The “transition metal as catalyst of oxygen removal” value in experiment [1] (100 micromolar metal, 10 mM ascorbic acid, 50 mM Tris pH 7.4) was “best catalyst”. The “Growth of Pseudomonas fluorescens in nutrient broth” value with Pseudomonas fluorescens (Time 0 days) is reported as 140; in the experiment with Pseudomonas fluorescens (Time 0.25 days), 180; in the experiment on Pseudomonas fluorescens (Time 1 day) it was 9.6 × 10^7; in the experiment on Pseudomonas fluorescens (Time 6 days), 1.6 × 10^8.

`O=S([O-])[O-].[Na+].[Na+]` [sulfite, sodium sulfite]: in experiment [1] (pH 7.4, 25° C.), the “reducing agent” value is listed as “more reactive than catechol”.

For the molecule catalase, in experiment [2], the “effect on oxidation of ascorbic acid in the presence of Cu^2+” value was “inhibition”.

Regarding `O=C1O[C@H]([C@@H](O)CO)C([O-])=C1O.[Na+]` [Ascorbate, sodium ascorbate], the “Growth of E. coli in nutrient broth” value is given as 350 in the experiment with E. coli (Time 0 days); 4600 with E. coli (Time 0.25 days); 1.6 × 10^8 in the experiment with E. coli (Time 1 day); 4.6 × 10^8 with E. coli (Time 2 days); 3.8 × 10^8 in the experiment with E. coli (Time 5 days). The “effect on the growth of E. coli” value is listed as “slightly reduced the maximum population” in the experiment on E. coli (setting [5]) and “little effect” in the experiment with E. coli (sealed tubes, nutrient broth). Besides, the “oxygen utilization by one component alone” value in experiment [1] is recorded as “No oxygen utilization”. For the same molecule, the “Growth of Pseudomonas fluorescens in nutrient broth” value in the experiment on Pseudomonas fluorescens (Time 0 days) is recorded as 160; with Pseudomonas fluorescens (Time 0.25 days), 170; in the experiment on Pseudomonas fluorescens (Time 1 day) it was 4.7 × 10^7; in the experiment with Pseudomonas fluorescens (Time 4 days), 7.2 × 10^8; in the experiment with Pseudomonas fluorescens (Time 6 days) it was 2.7 × 10^8.

Take superoxide dismutase: the “effect on oxidation of ascorbic acid in the presence of Cu^2+” value in experiment [2] is “substantial acceleration”.

On to `NCC(=O)O` [glycine], for which, in experiment [1] (pH 7.4, 25° C.), the “effect of chelating agent” value is on record as “faster than that of the control”. Further, the “effect of protein on the rate of oxygen removal by Oxysorb” value in experiment [1] was “diminished this protein effect”.

Take `N[C@@H](Cc1c[nH]cn1)C(=O)O` [Histidine, L-histidine]: the “effect of chelating agent” value in experiment [1] (pH 7.4, 25° C.) is reported as “some inhibition”.

Take `O=C(O)CN(CCN(CC(=O)O)CC(=O)O)CC(=O)O` [EDTA]: in experiment [1] (pH 7.4, 25° C.), the “effect of chelating agent” value is reported as “almost completely inhibited”.

On to `O=S([O-])O.[Na+]` [sodium bisulfite], for which the “browning of pureed potato” value in experiment [3] is listed as “this browning does not occur”. The “effect on chemical and microbiological events in potatoes stored in water” value in experiment [4] was “no effect at all”.

B1: ovalbumin: protein added to the Oxysorb system; binds copper with high affinity (protein, UniProt P01012 2-386, looked up)
Ovalbumin: GSIGAASMEFCFDVFKELKVHHANENIFYCPIAIMSALAMVYLGAKDSTRTQINKVVRFDKLPGFGDSIEAQCGTSVNVHSSLRDILNQITKPNDVYSFSLASRLYAEERYPILPEYLQCVKELYRGGLEPINFQTAADQARELINSWVESQTNGIIRNVLQPSSVDSQTAMVLVNAIVFKGLWEKAFKDEDTQAMPFRVTEQESKPVQMMYQIGLFRVASMASEKMKILELPFASGTMSMLVLLPDEVSGLEQLESIINFEKLTEWTSSNVMEERKIKVYLPRMKMEEKYNLTSVLMAMGITDVFSSSANLSGISSAESLKISQAVHAAHAEINEAGREVVGSAEAGVDAASVSEEFRADHPFLFCIKHIATNAVLFFGRCVSP
As to B1, the “effect of protein on the rate of oxygen removal by Oxysorb” value in experiment [1] is “greatly decreases the rate of oxygen removal”.
